Data set [1] in a line: Oral bioavailability in dog at 10 mg/kg. It is filed as ADME, organism-based, Canis lupus familiaris. As to conditions: in vivo.
Data set [2] in a line: Clearance in cynomolgus monkey at 1 mg/kg, iv. It counts as ADME, organism-based, Macaca fascicularis. Also on record: dose 1 mg/kg, route intravenous. To be noted: in vivo.
Data set [3] in a line: Oral bioavailability in cynomolgus monkey at 10 mg/kg, po. As to conditions: in vivo. It is filed as ADME, organism-based, Macaca fascicularis.
A short description of data set [4]: Clearance in dog at 1 mg/kg, iv. Details: dose 1 mg/kg, route intravenous. It counts as ADME, organism-based, Canis lupus familiaris. As to conditions: in vivo.
Data set [5] in a line: Half life in cynomolgus monkey at 1 mg/kg, iv. It counts as ADME, organism-based, Macaca fascicularis. Details: dose 1 mg/kg, route intravenous. To be noted: in vivo.
A short description of data set [6]: Volume of distribution at steady state in dog at 1 mg/kg, iv. It is filed as ADME, organism-based, Canis lupus familiaris. Details: dose 1 mg/kg, route intravenous. As to conditions: in vivo, read-out: Vdss.
A short description of data set [7]: Mean retention time in mouse at 3 mg/kg, iv. It counts as ADME, organism-based. As to conditions: in vivo. Details: dose 3 mg/kg, route intravenous.
Data set [8] can be described thus: Volume of distribution at steady state in mouse at 3 mg/kg, iv. It is filed as ADME, organism-based. Also on record: dose 3 mg/kg, route intravenous. As to conditions: in vivo, read-out: Vdss.
Data set [9] is described as follows: Clearance in mouse at 3 mg/kg, iv. Also on record: dose 3 mg/kg, route intravenous. It counts as ADME, organism-based. As to conditions: in vivo.
The nature of data set [10]: Volume of distribution at steady state in cynomolgus monkey at 1 mg/kg, iv. It counts as ADME, organism-based, Macaca fascicularis. Details: dose 1 mg/kg, route intravenous. As to conditions: in vivo, read-out: Vdss.
A short description of data set [11]: Mean retention time in dog at 1 mg/kg, iv. It is filed as ADME, organism-based, Canis lupus familiaris. Details: dose 1 mg/kg, route intravenous. To be noted: in vivo.
Data set [12] can be described thus: Half life in mouse at 3 mg/kg, iv. As to conditions: in vivo. It counts as ADME, organism-based. Also on record: dose 3 mg/kg, route intravenous.
Data set [13] is described as follows: Oral bioavailability in mouse at 10 mg/kg, po. As to conditions: in vivo. It is filed as ADME, organism-based.
Data set [14] is described as follows: Half life in dog at 1 mg/kg, iv. It counts as ADME, organism-based, Canis lupus familiaris. Also on record: dose 1 mg/kg, route intravenous. As to conditions: in vivo.
Data set [15] is described as follows: Mean retention time in cynomolgus monkey at 1 mg/kg, iv. It counts as ADME, organism-based, Macaca fascicularis. Details: dose 1 mg/kg, route intravenous. As to conditions: in vivo.
Data set [16] can be described thus: Oral bioavailability in Sprague-Dawley rat at 2 mg/kg. It is filed as ADME, organism-based. As to conditions: in vivo.
The test system of data set [17] is HUVEC. The data set is described as follows: cells. As to conditions: Homo sapiens.
Description: Inhibition of bFGF-induced proliferation of HUVEC cells
Data set [18] is described as follows: Intrinsic clearance in rat liver microsomes. It is filed as ADME, Microsome. A general note: Liver microsomes are a subcellular fraction often used to study metabolism.
Data set [19] can be described thus: AUC (0 to 24 hrs) in Sprague-Dawley rat at 2 mg/kg. It counts as ADME, organism-based. Also on record: time < 24 hr, dose 2 mg/kg. As to conditions: plasma.
Data set [20] is described as follows: Mean retention time in Sprague-Dawley rat at 0.25 mg/kg, iv. It counts as ADME, organism-based. Details: dose 0.25 mg/kg, route intravenous. To be noted: in vivo.
Data set [21] deals with Cytochrome P450 3A4 (Homo sapiens, UniProt P08684).
Cytochrome P450 3A4, sequence (P08684 whole entry): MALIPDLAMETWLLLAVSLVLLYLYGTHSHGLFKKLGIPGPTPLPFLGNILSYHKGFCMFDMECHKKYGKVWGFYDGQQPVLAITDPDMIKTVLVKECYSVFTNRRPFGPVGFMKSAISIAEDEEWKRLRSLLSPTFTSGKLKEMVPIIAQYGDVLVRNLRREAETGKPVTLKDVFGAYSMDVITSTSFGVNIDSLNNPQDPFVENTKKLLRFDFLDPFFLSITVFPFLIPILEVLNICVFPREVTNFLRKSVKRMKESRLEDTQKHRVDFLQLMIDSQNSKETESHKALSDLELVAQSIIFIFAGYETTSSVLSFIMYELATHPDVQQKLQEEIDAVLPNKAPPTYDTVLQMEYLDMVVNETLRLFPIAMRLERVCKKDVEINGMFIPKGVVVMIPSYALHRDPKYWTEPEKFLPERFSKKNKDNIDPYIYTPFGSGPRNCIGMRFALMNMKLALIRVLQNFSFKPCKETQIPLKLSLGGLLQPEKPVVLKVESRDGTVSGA
Data set [22] relates to HUVEC. Kind of data set: cells. As to conditions: Homo sapiens. The source holds these as a separate data set.
Description: Inhibition of VEGF-induced proliferation of HUVEC cells
Data set [23] can be described thus: Volume of distribution at steady state in Sprague-Dawley rat at 0.25 mg/kg, iv. It counts as ADME, organism-based. Details: dose 0.25 mg/kg, route intravenous. As to conditions: in vivo, read-out: Vdss.
Data set [24] can be described thus: Cmax in Sprague-Dawley rat at 2 mg/kg. It counts as ADME, organism-based. To be noted: in vivo. Details: dose 2 mg/kg.
Data set [25] deals with Vascular endothelial growth factor receptor 2 (Homo sapiens, UniProt P35968).
Vascular endothelial growth factor receptor 2, sequence (P35968 whole entry): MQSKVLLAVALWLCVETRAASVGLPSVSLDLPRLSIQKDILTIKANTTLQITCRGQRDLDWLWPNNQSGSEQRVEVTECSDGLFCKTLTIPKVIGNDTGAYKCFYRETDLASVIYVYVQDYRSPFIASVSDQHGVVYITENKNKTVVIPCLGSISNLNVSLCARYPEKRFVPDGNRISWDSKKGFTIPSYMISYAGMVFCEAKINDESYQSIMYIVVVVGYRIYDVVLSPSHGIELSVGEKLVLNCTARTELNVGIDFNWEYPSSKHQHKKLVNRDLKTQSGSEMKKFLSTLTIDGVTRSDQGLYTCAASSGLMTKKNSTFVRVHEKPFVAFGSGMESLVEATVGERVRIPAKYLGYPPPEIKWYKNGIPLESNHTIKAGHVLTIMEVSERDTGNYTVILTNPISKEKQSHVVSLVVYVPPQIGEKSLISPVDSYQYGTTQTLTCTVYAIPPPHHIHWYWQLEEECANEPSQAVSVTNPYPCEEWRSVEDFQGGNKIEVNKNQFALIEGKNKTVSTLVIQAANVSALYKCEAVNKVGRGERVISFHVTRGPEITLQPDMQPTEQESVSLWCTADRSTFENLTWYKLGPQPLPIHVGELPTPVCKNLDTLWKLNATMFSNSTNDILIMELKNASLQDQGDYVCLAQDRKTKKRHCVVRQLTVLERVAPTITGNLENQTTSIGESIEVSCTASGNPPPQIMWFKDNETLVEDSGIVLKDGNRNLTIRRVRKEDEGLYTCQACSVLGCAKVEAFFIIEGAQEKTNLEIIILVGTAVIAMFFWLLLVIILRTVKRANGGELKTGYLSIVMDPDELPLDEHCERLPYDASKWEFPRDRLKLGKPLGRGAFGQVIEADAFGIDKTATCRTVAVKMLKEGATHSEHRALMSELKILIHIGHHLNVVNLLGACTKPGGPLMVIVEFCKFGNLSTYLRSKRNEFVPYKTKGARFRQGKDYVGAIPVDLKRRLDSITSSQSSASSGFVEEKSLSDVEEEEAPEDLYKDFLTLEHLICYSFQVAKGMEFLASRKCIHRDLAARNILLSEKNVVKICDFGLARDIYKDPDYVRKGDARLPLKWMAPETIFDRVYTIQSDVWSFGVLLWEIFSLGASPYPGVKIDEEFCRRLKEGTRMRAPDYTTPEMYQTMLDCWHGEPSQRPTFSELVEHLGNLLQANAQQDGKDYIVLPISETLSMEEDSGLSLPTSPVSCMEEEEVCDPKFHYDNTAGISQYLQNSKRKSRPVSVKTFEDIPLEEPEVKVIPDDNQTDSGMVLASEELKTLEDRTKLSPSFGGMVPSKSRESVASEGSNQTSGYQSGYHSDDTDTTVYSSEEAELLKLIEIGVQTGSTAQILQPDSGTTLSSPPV
Description: Inhibition of KDR by HTRF assay
Data set [26] has as its target Cytochrome P450 2D6 (Homo sapiens, UniProt P10635).
The nature of data set [27]: Half life in Sprague-Dawley rat at 0.25 mg/kg, iv. As to conditions: in vivo. Details: dose 0.25 mg/kg, route intravenous. It counts as ADME, organism-based.
Data set [28] is described as follows: Clearance in Sprague-Dawley rat at 0.25 mg/kg, iv. It counts as ADME, organism-based. Details: dose 0.25 mg/kg, route intravenous. To be noted: in vivo.
Data set [29] can be described thus: Intrinsic clearance in human liver microsomes. It counts as ADME, Microsome.

This is an account of results in ChEMBL document CHEMBL1144685, “Naphthamides as novel and potent vascular endothelial growth factor receptor tyrosine kinase inhibitors: design, synthesis, and evaluation” (J Med Chem, 2008).

Molecules are shown by their SMILES. Some results are limits rather than exact numbers.

Cytochrome P450 2D6, sequence (P10635 whole entry): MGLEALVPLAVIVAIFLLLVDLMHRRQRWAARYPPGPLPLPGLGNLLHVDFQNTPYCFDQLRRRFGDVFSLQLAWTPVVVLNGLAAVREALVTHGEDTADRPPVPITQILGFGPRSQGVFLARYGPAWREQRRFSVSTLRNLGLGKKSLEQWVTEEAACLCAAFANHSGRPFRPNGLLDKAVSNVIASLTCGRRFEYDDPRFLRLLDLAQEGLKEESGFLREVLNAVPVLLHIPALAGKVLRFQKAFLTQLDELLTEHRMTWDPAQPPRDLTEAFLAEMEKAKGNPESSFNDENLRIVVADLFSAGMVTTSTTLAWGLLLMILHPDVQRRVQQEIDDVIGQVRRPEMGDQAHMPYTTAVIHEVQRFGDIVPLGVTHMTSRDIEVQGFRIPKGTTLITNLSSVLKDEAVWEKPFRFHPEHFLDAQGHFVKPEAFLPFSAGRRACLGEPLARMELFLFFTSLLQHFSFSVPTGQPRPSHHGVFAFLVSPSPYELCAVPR

What is called bioavailability is the share of a dose that reaches the circulation, judged against a reference dose that is usually intravenous. By clearance is commonly meant a measure of how efficiently the substance is removed, as volume per time. Broadly, the half-life is how long it takes for the measured level to halve. What is called MRT is a mean duration of stay, worked out from the concentration-time curve. Turning to `COc1cc2nccc(Oc3ccc4c(C(=O)Nc5ccc(Cl)cc5)cccc4c3)c2cc1OC.CS(=O)(=O)O`, the bioavailability in [1] was 72%; in data set [3], 62%; in data set [13], 24%. Further, the clearance in data set [2] was 3.33 mL/min/kg; in data set [4], 1.67 mL/min/kg; in [9], 3.33 mL/min/kg. Besides, the half-life in data set [5] was 56 h; in data set [12] it was 17 h; in [14] it was 48 h. Moreover, the Vd stood at 6.7 L/kg in data set [6], 4.8 L/kg in data set [8] and 4.3 L/kg in data set [10]. Also, the MRT was determined as 23 h in [7], 66 h in data set [11] and 22 h in [15].

For orientation: IC50 means the concentration that inhibits the measured activity by half. What is called microsomal CLint is the rate of metabolic loss divided by the concentration. What is called AUC(0-t) is the area under the concentration-time curve up to a stated or last time point. As usually defined, the Cmax is the highest concentration seen after dosing. As for `COc1cc2nccc(Oc3ccc4c(C(=O)Nc5ccc(Cl)cc5)cccc4c3F)c2cc1OC`, the bioavailability in data set [16] came out at 50%. The IC50 was 280 nM in data set [17]; greater than 50000 nM in [21]; 2 nM in data set [22]; 0.3 nM in [25]; greater than 50000 nM in [26]. Further, the intrinsic metabolic clearance (microsomal CLint) in data set [18] and in data set [29] was 30 µL/min/mg in each case. This compound came in with an AUC(0-t) at 24 h in data set [19] of 6010 ng·h/mL. The compound also returned an MRT in [20] of 22 h. Further, the Vd in data set [23] stood at 2.4 L/kg. The maximum concentration (Cmax) in data set [24] stood at 610 ng/mL. The compound further gave a half-life in data set [27] of 17 h. The compound further showed a clearance in data set [28] of 1.67 mL/min/kg.
